Assay results as given in patent US20160038454A1, “INTRAVENOUS FORMULATIONS OF […] AS IMMUNOMODULATORS AND […] AGENTS” (priority 2013, published 2016).
“Also recorded” adds a separate entry of the source.

Legend:
[1] = Conversion to triptolide using human serum; format: in vitro ADME
From the text: (Xia Zhi Lin and Zhen You Lan, Haematologica, 93:14 (2008)).

[2] = TK: plasma triptolide levels, Calvert study (emulsion); format: in vivo, rodents; details: FIG. 1
Method: (§1) Triptolide prodrugs are generally believed to be safer than triptolide. […] Triptolide prodrugs as an emulsion formulation are believed to have a toxicokinetic profile characterized by a flat AUC with a minimized Cmax. [In conjunction, it was postulated that a sustained inhibition of RNA polymerase is needed for optimum efficacy which in turn requires a pharmcokinetic profile of constant exposure to drug]. […] The no effect dose (“NOAEL”) of PG796(MRx102) again exceeded 1.5 mg/kg/day intravenously for seven days in rodents confirming the initial results. It is interesting to ask why a prodrug of triptolide would be safer than the natural product itself; while not wishing to be bound by theory, perhaps the answer lies in the pharmacokinetic profile of triptolide administered either directly or released from its carrier, PG796(MRx102). […] It also remained above the therapeutic levels (shown as a thick line without symbols). The difference in the Cmax/AUC profile of PG796(MRx102) vs. triptolide is believed to be due to the physiochemical properties of the lipid prodrug/emulsion formulation combination. In general, triptolide prodrugs having a cLogP greater than 0.5 are more lipid-soluble than water soluble and are expected to take longer to convert to the drug form; such characteristics may yield a flatter conversion profile and less of a drug-release Cmax spike.
TK comparison of triptolide levels in Calvert and SRI studies—Males and Females

[3] = test system: human T cell lymphoma (Jurkat) cells; experiment: in vitro; format: cell-based
Method: Test compounds may be dissolved in DMSO at a concentration of 20 mM. Further dilutions may be done in RPMI1640 medium (GIBCO, Rockville, Md.) supplemented with 10% Fetal Calf Serum (HyClone Laboratories, Logan, Utah).
Cytotoxicity of the compounds is determined in a standard MTT assay using Cell Proliferation Kit I (#1 465 007, Roche Diagnostics, Mannheim, Germany). Briefly, human T cell lymphoma (Jurkat) cells (4×10^5 per well) are cultured for 24 h, in 96-well tissue culture plates, in the presence of serial three-fold dilutions of test compounds or medium containing the same concentration of DMSO as in the test samples at each dilution point. The cultures are then supplemented with 10 μl/well MTT reagent for 4 h and then with 0.1 ml/well solubilizing reagent for an additional 16 h. Optical density at 570 nm (OD570) is measured on a ThermoScan microplate reader (Molecular Devices, Menlo Park, Calif.).

rodents = experiment: Rodent toxicology study, intravenous, seven days; format: in vivo
Method: as §1

[4] = Rodent toxicology study, intravenous, seven days; format: in vivo, rodents; details: in vivo, iv; intravenously for seven days in rodents; read-out: no effect dose (NOAEL)
Method: as §1

[5] = test system: IL-2 production by Jurkat cells; experiment: cells; format: cell-based, human
Method: Test samples can be diluted to 1 mM in complete tissue culture medium. Aliquots are placed in microculture plates coated with anti-CD3 antibody (used to stimulate the production of IL-2 by Jurkat cells), and serial dilutions are prepared so that the final concentration encompass the range of 0.001 to 10,000 nM in log increments. Cells from an exponentially expanding culture of Jurkat human T cell line (#TIB-152 obtained from American Type Culture Collection, Manassas, Va.) are harvested, washed once by centrifugation, re-suspended in complete tissue culture medium, and diluted to a concentration of 2×10^6 cells/ml. A volume of 50 μl of Jurkat cells (1×10^5 cells) is added to wells containing 100 μl of the diluted compounds, 50 μl of PMA (10 ng/ml) is added to each well, and the plates are incubated at 37° C. in a 5% CO2 incubator. After 24 hours, the plates are centrifuged to pellet the cells, 150 μl of supernatant is removed from each well, and the samples are stored at −20° C. The stored supernatants are analyzed for human IL-2 concentration using the Luminex 100 (Luminex Corporation, Austin, Tex.), Luminex microspheres coupled with anti-IL-2 capture antibody, and fluorochrome-coupled anti-IL-2 detection antibody. The data are expressed as pg/ml of IL-2.

NF-κB, Mcl-1 and XIAP = details: cited from earlier work
[6] = PG796(MRx102) purity (peak area %) / stability in emulsions; format: physicochemical
Method: Pharmaceutical emulsions are typically prepared at neutral to slightly alkaline pH since they are stabilized by electrostatic repulsion between droplets imparted by pH-sensitive anionic surfactants, such as phosphatidyl ethanolamine, free fatty acid salts, and cholate. However, it was possible that this pH range could be suboptimal for the chemical stability of PG796(MRx102). To test this, emulsions were prepared at different pH values ranging from 4 to 8. Buffers were included to control the pH, and the non-pH sensitive surfactant, sodium dodecyl sulfate was used in place of sodium cholate to assure a negative charge even in the low pH emulsions. All of the formulations were reasonably stable for up to 2 weeks at room temperature. […]

[7] = Solubility of PG796(MRx102) in triglyceride oils (GTO vs SBO); format: physicochemical; details: glyceryl trioctanoate vs soybean oil
Ba/F3-ITD cells = details: mice harboring Ba/F3-ITD cells; Carter et al. 2012; cited from earlier work
[8] = Jurkat cells, comparison with triptolide or PG490-88
[9] = incubated in human serum compared with mouse serum

Compound: CC(C)[C@]12O[C@H]1[C@@H]1O[C@]13[C@]1(O[C@H]1C[C@H]1c4c(C(=O)c5ccccc5)oc(OC(=O)c5ccccc5)c4CC[C@@]13C)[C@@H]2O [PG796, 18-deoxo-19-dehydro-18-benzoyloxy-19-benzoyl triptolide]
- conversion to triptolide in human serum [1]: rapidly and completely converted
- triptolide Cmax after prodrug relative to triptolide administered directly ([2]; intravenous, emulsion): approximately one-tenth
- triptolide blood levels over time ([2]; prodrug administered): remained relatively constant
- cytotoxic activity in MTT assay (in words) [3, 8]: cytotoxic; also recorded: higher level of activity
- activity in MTT assay after incubation in human serum vs mouse serum [3, 9]: high, and essentially equivalent, activity
- gross or histopathologic toxic effects (rodents; intravenous doses up to 1.5 mg/kg/day for seven days, initial rodent toxicology study): no gross or histopathologic toxic effects
- toxicity relative to triptolide (times less toxic) (rodents; intravenous, emulsion formulation, rodents, gross and histopathologic criteria): at least 20 times
- NOAEL at 7 days [4]: > 1.5 mg/kg/day
- IL-2 inhibition (in words) [5, 8]: inhibited IL-2 production; also recorded: higher level of activity
- activity in IL-2 inhibition assay after incubation in human serum vs mouse serum [5, 9]: high, and essentially equivalent, activity
- effect on mRNA levels, NF-κB, Mcl-1 and XIAP (NF-κB, Mcl-1 and XIAP): reduced mRNA levels, reduced NF-κB and reduced Mcl-1 and XIAP
- PG796 (MRx102) Purity ([6]; emulsion target pH 4.0 (acetate), 0 hr): 98.9 peak area %
- PG796 (MRx102) Purity ([6]; emulsion target pH 4.0 (acetate), 1 wk): 98.9 peak area %
- PG796 (MRx102) Purity ([6]; emulsion target pH 4.0 (acetate), 2 wk): 97.2 peak area %
- PG796 (MRx102) Purity ([6]; emulsion target pH 4.0 (acetate), 24 hr): 99.3 peak area %
- PG796 (MRx102) Purity ([6]; emulsion target pH 5.0 (acetate), 0 hr): 99.2 peak area %
- PG796 (MRx102) Purity ([6]; emulsion target pH 5.0 (acetate), 1 wk): 99.1 peak area %
- PG796 (MRx102) Purity ([6]; emulsion target pH 5.0 (acetate), 2 wk): 98.3 peak area %
- PG796 (MRx102) Purity ([6]; emulsion target pH 5.0 (acetate), 24 hr): 99.4 peak area %
- PG796 (MRx102) Purity ([6]; emulsion target pH 6.0 (histidine), 0 hr): 99.2 peak area %
- PG796 (MRx102) Purity ([6]; emulsion target pH 6.0 (histidine), 1 wk): 98.9 peak area %
- PG796 (MRx102) Purity ([6]; emulsion target pH 6.0 (histidine), 2 wk): 98.8 peak area %
- PG796 (MRx102) Purity ([6]; emulsion target pH 6.0 (histidine), 24 hr): 99.2 peak area %
- PG796 (MRx102) Purity ([6]; emulsion target pH 7.0 (phosphate), 0 hr): 99.4 peak area %
- PG796 (MRx102) Purity ([6]; emulsion target pH 7.0 (phosphate), 1 wk): 98.8 peak area %
- PG796 (MRx102) Purity ([6]; emulsion target pH 7.0 (phosphate), 2 wk): 91.0 peak area %
- PG796 (MRx102) Purity ([6]; emulsion target pH 7.0 (phosphate), 24 hr): 99.1 peak area %
- PG796 (MRx102) Purity ([6]; emulsion target pH 8.0 (Tris), 0 hr): 98.7 peak area %
- PG796 (MRx102) Purity ([6]; emulsion target pH 8.0 (Tris), 1 wk): 99.1 peak area %
- PG796 (MRx102) Purity ([6]; emulsion target pH 8.0 (Tris), 2 wk): 98.3 peak area %
- PG796 (MRx102) Purity ([6]; emulsion target pH 8.0 (Tris), 24 hr): 99.2 peak area %
- pH dependence of stability of PG796(MRx102) in the emulsion ([6]; pH 4 to 8): not pH-dependent
- solubility in GTO relative to SBO [7]: about 3.4 fold
- leukemia burden (Ba/F3-ITD cells): greatly decreased
- survival time (Ba/F3-ITD cells): increased
